Experiment in all cases: Antibacterial activity, minimum inhibition concentration (method of The Chemotherapy Association, Japan)
What all share (assay type): cell-based

For one test, the system named is Proteus rettgeri NIH-96. The note with it: Providencia rettgeri. From the text:
(§1) The abbreviations A to P will be used in the following Tables 2 to 8.
(§2) Test results are shown in terms of the minimum inhibition concentration (µg/mℓ.) in the following Tables 2 to 8.

A further test concerns Proteus vulgaris OX-19. The settings on record: Proteus vulgaris.
Source text: as §1, §2

The subject of test [1] is Pseudomonas aeruginosa NCTC-10490. The settings on record: Pseudomonas aeruginosa. The gist of the method: (§3)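 Potency read as minimum inhibitory concentration in µg/mℓ, following the method of The Chemotherapy Association, Japan.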
In another test the test system is Escherichia coli NIHJ. The settings on record: Escherichia coli, read-out: minimum inhibition concentration. The method, boiled down:
as §3

The subject of test [2] is Staphylococcus aureus 6538-P. The gist of the method: as §3
Test [3] concerns Proteus inconstans NIH-118. The note with it: Providencia alcalifaciens. The gist of the method:
as §3

For test [4], the system named is Enterobactor cloacae NCTC-9394. The note with it: read-out: minimum inhibition concentration. The method, boiled down: as §3
The next test relates to Escherichia coli NIHJC-2. The note with it: Escherichia coli, NIHJC2, read-out: minimum inhibition concentration. The method, boiled down:
as §3

The next test concerns Serratia marcescens 1023. The note with it: Serratia marcescens, 1023, read-out: minimum inhibition concentration, strain E: Serratia marcescens 1023. The method, boiled down: as §3
The subject of test [5] is Serratia marcescens IFO-3736. The note with it: Serratia marcescens, IFO3736, read-out: minimum inhibition concentration. The gist of the method:
as §3

The test system of another test is Klebsiella pneumoniae. The note with it: Klebsiella pneumoniae, read-out: minimum inhibition concentration, strain C: Klebsiella pneumoniae. The gist of the method:
as §3

The next test deals with Proteus morgani Kono. The settings on record: read-out: minimum inhibition concentration. The method, boiled down:
as §3

Test [6] relates to Citrobactor freundii NIH-10018 -68. The note with it: read-out: minimum inhibition concentration. The method, boiled down:
as §3

Test [7] deals with Proteus mirabillis B-30-2 IFO-3849. The settings on record: read-out: minimum inhibition concentration, strain G: Proteus mirabillis B-30-2 IFO-3849. The method, boiled down: as §3
The subject of test [8] is Salmonella typhimurium 3173. The settings on record: Salmonella enterica, TYPHIMURIUM, read-out: minimum inhibition concentration, strain D: Salmonella typhimurium 3173. The method, boiled down: as §3
In test [9] the test system is Bacillus subtilis ATCC 6633. The settings on record: Bacillus subtilis, ATCC6633, read-out: minimum inhibition concentration, strain B: Bacillus subtilis ATCC 6633. The gist of the method: as §3
Where [10] appears, read: NIH96, strain I: Proteus rettgeri NIH-96, read-out: minimum inhibition concentration.
Where [11] appears, read: OX19, strain H: Proteus vulgaris OX-19, read-out: minimum inhibition concentration.
The mark [12] stands for this setting: NCTC10490, strain M: Pseudomonas aeruginosa NCTC-10490, read-out: minimum inhibition concentration.
Where [13] appears, read: strain K: Escherichia coli NIHJ.
Setting [14] is: strain A: Staphylococcus aureus 6538-P, read-out: minimum inhibition concentration.
[15] abbreviates: NIH118, strain P: Proteus inconstans NIH-118, read-out: minimum inhibition concentration.
[16] abbreviates: strain N: Enterobactor cloacae NCTC-9394.
Setting [17] is: NIH96, read-out: minimum inhibition concentration, strain I: Proteus rettgeri NIH-96.
The mark [18] stands for this setting: OX19, read-out: minimum inhibition concentration, strain H: Proteus vulgaris OX-19.
Setting [19] is: NCTC10490, read-out: minimum inhibition concentration.
[20] abbreviates: Staphylococcus aureus, 6538P, read-out: minimum inhibition concentration, strain A: Staphylococcus aureus 6538-P.

Structures are written as SMILES. In brackets after ≈: the same amount, converted by molar mass. Counter-ions that a name gives are not always drawn. Like-named read-outs stand apart in the source and are kept apart here.

Results on five compounds are retold here after patent EP0048954A2, “Beta-lactam compounds, process for the preparation thereof and intermediate products for the preparation thereof” (SAGAMI CHEMICAL RESEARCH CENTER, priority 1980, dated 1982).

`CC(=O)OCC1=C(C(=O)O)N2C(=O)C(NC(=O)C(=C(Cl)Cl)c3cccs3)[C@H]2SC1` (stereo partly shown) [Compound 41, 7-[2-dichloromethylene-2-(2-thienyl)acetamido]-3-acetoxymethyl-3-cephem-4-carboxylic acid]: the MIC in the test with Proteus rettgeri NIH-96 (setting [10]) is 50 µg/mL (≈ 105 µM); in the test with Proteus vulgaris OX-19 (setting [11]), 0.39 µg/mL (≈ 0.817 µM); in test [1] (setting [12]), 25 µg/mL (≈ 52.4 µM); in the test with Escherichia coli NIHJ (setting [13]) it was 0.39 µg/mL (≈ 0.817 µM); in [2] (setting [14]) it was 0.2 µg/mL (≈ 0.419 µM); in [3] (setting [15]) it was 1.56 µg/mL (≈ 3.27 µM). The MIC in test [4] (setting [16]) is 50 µg/mL (≈ 105 µM).
Turning to `CC(=O)OCC1=C(C(=O)O)N2C(=O)C(NC(=O)C(=C(Cl)Cl)c3ccsc3)[C@H]2SC1` (stereo partly shown) [Compound 40, 7-[2-dichloromethylene-2-(3-thienyl)acetamido]-3-acetoxymethyl-3-cephem-4-carboxylic acid], the MIC amounted to 0.39 µg/mL (≈ 0.817 µM) with Proteus rettgeri NIH-96 (setting [10]); 25 µg/mL (≈ 52.4 µM) in the test with Proteus vulgaris OX-19 (setting [11]); 25 µg/mL (≈ 52.4 µM) in test [1] (setting [12]); 1.56 µg/mL (≈ 3.27 µM) in the test on Escherichia coli NIHJ (setting [13]); 0.39 µg/mL (≈ 0.817 µM) in test [2] (setting [14]); 25 µg/mL (≈ 52.4 µM) in [3] (setting [15]). Also, the MIC in test [4] (setting [16]) stood at 100 µg/mL (≈ 209 µM).
Consider `CC(=O)OCC1=C(C(=O)O)N2C(=O)C(NC(=O)Cc3cccs3)C2SC1` (stereo not shown) [Cephalo-thin Na salt, reference compound], for which the MIC is more than 100 µg/mL in the test on Proteus rettgeri NIH-96 (setting [17]); more than 100 µg/mL in the test on Proteus vulgaris OX-19 (setting [18]); more than 100 µg/mL in test [1] (setting [19]); 25 µg/mL with Escherichia coli NIHJ (setting [13]); 0.1 µg/mL in test [2] (setting [20]); more than 100 µg/mL in test [3] (NIH118, read-out: minimum inhibition concentration). Also, the MIC in [4] (setting [16]) is more than 100 µg/mL.
`Cn1nnnc1SCC1=C(C(=O)O)N2C(=O)C(NC(=O)C(=C(Cl)Cl)c3cccs3)C2SC1` (stereo not drawn) [Compound 39, 7-[2-dichloromethylene-2-(2-thienyl)acetamido]-3-(l-methyl-lH-tetrazol-5-yl)thiomethyl-3-cephem-4-carboxylic acid]: the MIC in the test on Proteus rettgeri NIH-96 (setting [10]) amounted to 0.05 µg/mL (≈ 0.0937 µM); with Proteus vulgaris OX-19 (setting [11]), 50 µg/mL (≈ 93.7 µM); in test [1] (setting [12]), 6.25 µg/mL (≈ 11.7 µM); in the test with Escherichia coli NIHJ (setting [13]), 0.39 µg/mL (≈ 0.731 µM); in test [2] (setting [14]) it was 0.2 µg/mL (≈ 0.375 µM); in test [3] (setting [15]), 3.12 µg/mL (≈ 5.86 µM). In addition, the MIC in test [4] (setting [16]) amounted to 12.5 µg/mL (≈ 23.4 µM).
Regarding `CC(=O)OCC1=C(C(=O)[O-])N2C(=O)C(NC(=O)C(=CCl)c3csc(N)n3)[C@H]2SC1.[Na+]` (stereo partly shown) [Compound 20, 7-[2-chloromethylene-2-(2-aminothiazol-4-yl)acetamido]-3-acetoxymethyl-3-cephem-4-carboxylic acid sodium salt], the MIC came to 0.025 µg/mL in the test with Proteus rettgeri NIH-96 (setting [17]); 0.2 µg/mL in the test on Proteus vulgaris OX-19 (setting [18]); 6.25 µg/mL in test [1] (setting [19]); 3.12 µg/mL in the test with Escherichia coli NIHJC-2; 0.05 µg/mL in the test with Escherichia coli NIHJ; 12.5 µg/mL in the test with Serratia marcescens 1023. Moreover, the MIC in test [5] is 6.25 µg/mL; with Klebsiella pneumoniae it was 1.56 µg/mL; in the test on Proteus morgani Kono, 1.56 µg/mL; in test [6] it was 1.56 µg/mL; in [7] it was 1.56 µg/mL; in [8] it was 3.12 µg/mL. The MIC in test [2] (setting [20]) turned out to be 1.56 µg/mL; in test [4], 0.78 µg/mL; in test [9], 6.25 µg/mL.
